Reference: patent US20260325667A1, “TISSUE FACTOR ANTIBODY-DRUG CONJUGATES AND USES THEREOF” (priority 2022, published 2026)
Read-outs that look alike come from different tables or passages of the source.

How the values were obtained:
A431 [1] = test: In vitro cytotoxicity (CellTiter Glo, 5 days), A431; format: cell-based; conditions: controls (FITC-ADC 8 DAR 6.36; FITC-ADC 4 DAR 3.39; free belotecan)
Experimental: (§1) Various cancer cell lines were plated in 96-well plates (Costar 3610) at a density of 1.5×10^3 cells/well in 100 μL of growth media. The next day, cells were treated with […] of test compounds serially-diluted in media. After incubation at 37° C. with […] for 5 days, viability was measured using the Promega CellTiter Glo® reagent according to the manufacturer's recommendations. GI50 curves were calculated in GraphPad Prism normalized to the payload concentration.

HPAF-II = test: In vitro cytotoxicity (CellTiter Glo, 5 days), HPAF-II; format: cell-based; conditions: controls (FITC-ADC 8 DAR 6.36; FITC-ADC 4 DAR 3.39; free belotecan)
Experimental: as §1

BxPC-3 = test: In vitro cytotoxicity (CellTiter Glo, 5 days), BxPC-3; format: cell-based; conditions: controls (FITC-ADC 8 DAR 6.36; FITC-ADC 4 DAR 3.39; free belotecan), FITC-ADC 4 value marked *: likely not accurate due to curve shape
Experimental: as §1

[2] = NHP payload (belotecan) concentration in plasma; format: in vivo, cynomolgus monkeys; conditions: cynomolgus, ADC dosed q3wX2
Experimental: To assess toxicity of the TF-ADCs, female cynomolgus (“cyno”) monkeys (n=2 per group) were treated via IV bolus with test articles at the doses indicated in the table below on days 1 and 22 (q3wX2). All monkeys that survived until day 43 of the study underwent euthanasia for necropsy and anatomic pathology evaluation. Clinical observations, ECG, eye exams, clinical and anatomic pathology, and TK analysis were performed.
Further, payload concentrations in plasma of cyno treated with various dosages of TF-ADC 6-4 and TF-ADC 6-8 were evaluated and the data is shown in FIGS. 14A and 14B. […] The plasma level of belotecan was low relative to ADCs and total antibody with a molar ratio (AUC0-21d) ranging from 169 to 519 for TF-ADC 6-4 and 130 to 156 for TF-ADC 6-8. TF-ADC 6-4 had approximately 2-fold higher belotecan compared to TF-ADC 6-8 for the same dose level. […] Belotecan's apparent half-life ranged between 3 to 6 days (Formation rate-limited).

A431 [3] = test: ATP release from treated tumor cells (RealTimeGlo); format: cell-based; conditions: TF+ tumor cell line, e.g.
Experimental: (§2) Tumor cell treatment: Tumor cells (such as A431 or SKOV-3) were trypsinized by washing with PBS, then 3 mL of TrypLE express was added to each T75 flask and incubated for 3-5 minutes at 37° C. DMEM containing 10% FBS (Gibco) was added to each flask to gently wash cells. Cells were then transferred to a conical tube and centrifuged at 1000RPM for 5 minutes and resuspended in fresh medium. Cells were counted and the cell concentration was adjusted to 10,000 cells per 80 μL. Cells were plated at 80 μL per well and incubated at 37° C., 5% CO2 for 5 hours to allow cells to adhere to the plate surface. 5× dilutions of treatment compounds were made in medium. 20 µL of treatment were added to each well and mixed gently and incubated at 37° C., 5% CO2. Belotecan, MMAE, and a benchmark ADC (also referred to herein as BM ADC, CAS 1418731-10-8 and INN 10148) were also tested in parallel and served as additional controls.
(§3) ICD molecule, such as ATP and HMGB1, readouts were performed as follows. For ATP release measurement, Promega RealTimeGlo extracellular ATP assay kit (Promega, Cat #GA5010) was used according to the manufacturer's instructions. […] ATP release was measured beginning 24 hours after treatment with readings every 10 minutes on a Spectramax i3× with temperature control at 37° C. […] HMGB1 release was measured at 48- and 72-hours post-treatment.

A431 [4] = test: HMGB1 release from treated tumor cells (Lumit); format: cell-based; conditions: TF+ tumor cell line, e.g.
Experimental: as §2, §3

[5] = read-out: IC50 - drug concentration
[6] = read-out: IC50 - mAb concentration

## CC[C@@]1(O)C(=O)OCc2c1cc1n(c2=O)Cc2c-1nc1ccccc1c2CCNC(C)C [belotecan]
A431 [1]; Homo sapiens, A-431, 120 h, FITC-ADC 4 value marked *: likely not accurate due to curve shape, read-out: IC50 - mAb concentration
  IC50: 2.36 nM
A431 [1]; Homo sapiens, A-431, 120 h, read-out: IC50 - drug concentration
  IC50: 2.36 nM
A431 [1]; FITC-ADC 4 value marked *: likely not accurate due to curve shape, read-out: IC50 - mAb concentration
  IC50: 2.62 nM
A431 [1]; [5]
  IC50: 2.62 nM
HPAF-II; Homo sapiens, 120 h, read-out: IC50 - drug concentration
  IC50: 3.04 nM
HPAF-II; Homo sapiens, 120 h, read-out: IC50 - mAb concentration
  IC50: 3.04 nM
HPAF-II; [5]
  IC50: 2.45 nM
HPAF-II; [6]
  IC50: 2.45 nM
BxPC-3; Homo sapiens, BXPC-3, 120 h, read-out: IC50 - drug concentration
  IC50: 2.62 nM
BxPC-3; Homo sapiens, BXPC-3, 120 h, read-out: IC50 - mAb concentration
  IC50: 2.62 nM
BxPC-3; [5]
  IC50: 2.56 nM
BxPC-3; [6]
  IC50: 2.56 nM
[2]
  accumulation of payload: Minimal accumulation of payload was observed
A431 [3]
  ATP release: induced the release
A431 [4]
  HMGB1 release: induced the release
